Data on 4 molecules can be found in PMC8911752, “The Synthesis and Initial Evaluation of MerTK Targeted PET Agents” (Molecules, 2022).

One may read the IC50 as the concentration needed to halve the response being measured. Low values mean greater potency in that assay, high ones weaker potency in that assay.

The target in data set [1] is T1, Flt3 (Homo sapiens, UniProt P36888).
T1 sequence (P36888 27-993): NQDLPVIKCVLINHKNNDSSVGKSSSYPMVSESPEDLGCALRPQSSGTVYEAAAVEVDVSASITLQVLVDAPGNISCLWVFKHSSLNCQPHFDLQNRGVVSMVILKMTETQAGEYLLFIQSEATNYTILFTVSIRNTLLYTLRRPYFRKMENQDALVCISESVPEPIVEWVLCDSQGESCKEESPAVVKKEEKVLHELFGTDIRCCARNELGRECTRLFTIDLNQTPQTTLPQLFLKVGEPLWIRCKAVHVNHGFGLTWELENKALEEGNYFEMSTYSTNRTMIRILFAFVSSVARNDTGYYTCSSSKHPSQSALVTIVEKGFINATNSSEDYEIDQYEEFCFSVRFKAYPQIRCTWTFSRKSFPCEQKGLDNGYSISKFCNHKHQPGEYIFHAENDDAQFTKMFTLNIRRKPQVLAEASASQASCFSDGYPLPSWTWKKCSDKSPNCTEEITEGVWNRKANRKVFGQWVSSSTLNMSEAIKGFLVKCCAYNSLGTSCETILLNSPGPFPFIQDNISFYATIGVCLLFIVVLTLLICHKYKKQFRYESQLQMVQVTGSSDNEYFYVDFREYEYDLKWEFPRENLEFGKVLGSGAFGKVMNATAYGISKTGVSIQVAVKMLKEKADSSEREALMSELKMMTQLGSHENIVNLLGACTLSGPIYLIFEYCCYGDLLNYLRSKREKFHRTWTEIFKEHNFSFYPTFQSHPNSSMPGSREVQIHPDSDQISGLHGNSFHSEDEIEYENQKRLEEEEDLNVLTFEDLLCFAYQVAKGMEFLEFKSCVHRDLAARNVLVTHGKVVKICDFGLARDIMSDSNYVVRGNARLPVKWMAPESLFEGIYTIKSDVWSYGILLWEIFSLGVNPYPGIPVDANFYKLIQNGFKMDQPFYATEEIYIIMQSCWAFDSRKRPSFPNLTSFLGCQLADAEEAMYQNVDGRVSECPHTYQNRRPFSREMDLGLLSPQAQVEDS
The data set is described as follows: Microcapillary electrophoresis (MCE) kinase assay, Flt3. The data set is classed as biochemical. Particulars: ATP at Km, mean of two or more independent assays. As for the experimental part: The inhibitory activities of standards towards MerTK, Axl, Tyro3 and Flt3 were determined in our in-house microcapillary electrophoresis (MCE) assays.
Microcapillary Electrophoresis (MCE) Assays were performed with literature method. […] All reactions were terminated by addition of 20 µL of 70 mM EDTA. After an 180 min incubation, phosphorylated and unphosphorylated substrate peptides (Table 2) were separated in buffer supplemented with 1 x CR-8 on a LabChip EZ Reader equipped with a 12-sipper chip. Data were analyzed using EZ Reader software.

Data set [2] has as its system B16F10 tumor-bearing mice. The data set is described as follows: PET imaging in B16F10 tumor-bearing mice. Type of data set: in vivo. The following applies: 68Ga-labeled, initial pilot study in mice.
Data set [3] has as its system B16F10 tumor-bearing mice. Description: PET imaging in B16F10 tumor-bearing mice. The data set is classed as in vivo. Particulars: initial PET study, 18F-labeled agents. As for the experimental part: Evaluation of the PET agent [^18F]-MerTK-6 was performed on B16F10 tumor-bearing mice. At 30 min post-injection (p.i), the uptake in tumor, liver, kidney, and muscle was 4.65 ± 1.25, 14.79 ± 0.99, 10.42 ± 1.01, and 2.51 ± 0.48%ID/g, respectively. The uptake at 2 h p.i. was 4.79 ± 0.24, 9.72 ± 1.56, 5.34 ± 1.25, and 1.55 ± 0.23%ID/g, respectively. Overall, the tumor uptake was maintained at ~5%ID/g and the tumor to muscle contrast increased to 3.09 at 2 h p.i, compared with 1.86 at 0.5 h p.i.
All animal studies were reviewed and approved by The University of North Carolina at Chapel Hill Institutional Animal Care and Use Committee. The B16F10 tumor cell was obtained from the LCCC tissue culture facility (the University of North Carolina at Chapel Hill, Chapel Hill, NC, USA). The B16F10 tumor-bearing […] mouse model was prepared as described previously. Briefly, B16/F10 cells were subcutaneously injected on the right flank of C57BL/6 female mice (Jackson Laboratory). The tumor volume was measured daily. When the tumor size reached 100 mm^3, the mice were used for PET imaging studies.
B16F10 tumor-bearing mice (n = 3/group) were intravenously injected via the tail vein with tracers. At 30 min and 120 min post-injection, a 10-min static emission scan was acquired with a SuperArgus small-animal PET/CT scanner. The regions of interests (ROIs) were drawn over the tumor and other organs and calculated as %ID/g. The mean uptake and standard deviation were calculated.

In the case of `C[C@H](Nc1ncc2c(C3CCN(C)CC3)cn([C@H]3CC[C@H](O)CC3)c2n1)c1ccccc1` [MerTK-2], the IC50 in data set [1] was more than 30 µM.

In the case of `C[C@H](Nc1ncc2c(C3CCN(C(=S)Nc4ccc(CC5CN(CC(=O)O)CCN(CC(=O)O)CCN5CC(=O)O)cc4)CC3)cn([C@H]3CC[C@H](O)CC3)c2n1)c1ccccc1` (stereo partly drawn) [MerTK-4], the IC50 in data set [1] is more than 30 µM. This molecule displayed a tumor uptakes in data set [2] of less than 1 %ID/g.

For `CCC[C@H](C)Nc1ncc2c(C3CCN(CCF)CC3)cn([C@H]3CC[C@H](O)CC3)c2n1` [MerTK-5], inhibition in data set [1] was half-maximal at 1 µM (IC50).

In the case of `C[C@H](Nc1ncc2c(C3CCN(CCF)CC3)cn([C@H]3CC[C@H](O)CC3)c2n1)c1ccccc1` [MerTK-6], in data set [1], 5.5 µM corresponded to half-maximal inhibition (IC50). In data set [3], the “tumor uptake and contrast compared with MerTK-5” value is “more prominent tumor uptake and contrast”.
